# Measured values: patent publication US20240277658A1, “NLRP3 ACTIVATORS FOR USE IN THE TREATMENT OF INFECTIOUS DISEASES OR CANCER BY ACTIVATING NLRP3 INFLAMMASOME” (ALBERT-LUDWIGS-UNIVERSITÄT FREIBURG, priority 2020, published 2024)
# Where “and” joins values, the source holds several entries; their conditions need not be identical. Identical values can stand only once. Like-named read-outs stand apart in the source and are kept apart here.
# Experiments:
# NLRP3 inflammasome = target: T1, NLRP3 inflammasome (Mus musculus, UniProt Q8R4B8); experiment: IL-1β release from LPS-primed BMDCs (ELISA) as readout of NLRP3 inflammasome activation; format: cell-based
# T1 construct: endogenous in cells; host or cells: primary mouse bone marrow-derived dendritic cells (BMDCs), LPS-primed
# T1 sequence (Q8R4B8 whole entry): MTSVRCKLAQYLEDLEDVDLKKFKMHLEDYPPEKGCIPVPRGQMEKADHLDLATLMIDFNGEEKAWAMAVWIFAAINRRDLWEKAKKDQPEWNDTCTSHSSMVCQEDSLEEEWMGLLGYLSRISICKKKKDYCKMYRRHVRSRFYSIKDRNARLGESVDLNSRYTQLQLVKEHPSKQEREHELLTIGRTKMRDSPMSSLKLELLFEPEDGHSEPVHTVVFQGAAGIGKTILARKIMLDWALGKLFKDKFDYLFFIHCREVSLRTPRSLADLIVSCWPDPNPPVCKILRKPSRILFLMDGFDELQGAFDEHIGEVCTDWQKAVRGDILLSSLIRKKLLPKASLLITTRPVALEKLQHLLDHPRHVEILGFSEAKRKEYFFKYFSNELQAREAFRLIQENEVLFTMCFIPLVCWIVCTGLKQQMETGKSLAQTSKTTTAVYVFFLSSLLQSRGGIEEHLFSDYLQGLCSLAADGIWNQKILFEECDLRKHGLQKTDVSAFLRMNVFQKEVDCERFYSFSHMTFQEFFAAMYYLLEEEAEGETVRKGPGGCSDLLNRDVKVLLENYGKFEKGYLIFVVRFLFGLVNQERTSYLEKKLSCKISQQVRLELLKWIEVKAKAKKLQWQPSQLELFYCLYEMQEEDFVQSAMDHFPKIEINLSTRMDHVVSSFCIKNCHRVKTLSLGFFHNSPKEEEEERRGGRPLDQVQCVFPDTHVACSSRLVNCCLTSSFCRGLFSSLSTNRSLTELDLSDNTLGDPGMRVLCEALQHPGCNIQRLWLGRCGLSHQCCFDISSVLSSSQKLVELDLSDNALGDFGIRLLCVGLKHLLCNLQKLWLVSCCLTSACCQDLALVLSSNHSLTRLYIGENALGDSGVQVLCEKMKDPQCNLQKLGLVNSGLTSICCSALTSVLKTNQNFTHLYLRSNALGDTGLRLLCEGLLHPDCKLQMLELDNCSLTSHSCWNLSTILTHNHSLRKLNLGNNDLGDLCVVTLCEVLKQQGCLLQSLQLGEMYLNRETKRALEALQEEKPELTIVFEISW
# Experimental: (§1) This was tested in cell culture in several different in vitro assays classically used to investigate inflammasome activation. These include measuring inflammasome-dependent lytic cell death (pyroptosis) by detecting release of the cytosolic enzyme lactate dehydrogenase (LDH) using a commercial colorimetric assay and release of proinflammatory cytokines like IL-1β by enzyme-linked immunosorbent assay (ELISA), analyzing cleavage and activation of caspase-1 and IL-1β by immunoblotting and immunofluorescence imaging of ASC speck formation. Lytic cell death was determined via LDH release. Assay results for compounds are illustrated in the Tables below, wherein the concentration of the compounds tested had been 50 μM or as indicated in the table, and the concentration of the known activators has been tested with 5 μM of nigericin, 100 μM of each R837 and CL097. For classification of the activity of a given molecule, release of IL-1β was quantified as % of IL-1% of a respective control activator used for the experiment (highlighted in tables with bold letters). The compounds listes in Table 1 were classified into 4 groups depending on their ability to induce the NLRP3 inflammasome activation, assessed by % IL-1β release as compared to the positive control.
# (§2) Mouse bone marrow-derived dendritic cells (BMDCs) were isolated from femurs and tibias previously described (Gross, Olaf, 2012, “Measuring the inflammasome”, Methods in molecular biology, Clifton, N.J., 844, pp. 199-222.). In brief, tibias and femurs were carefully removed and put to sterile 70% ethanol for 1 minute. Using a 22-G needle attached to a 20 ml-syringe filled with sterile flushing medium, the bone marrow was pressed through the mesh of a […] cell strainer. The cells were spun down by centrifugation at 400×g, 4° C. for 5 minutes and red blood cells lysed by resuspension and incubation for 5 minutes at room temperature in RBC lysis buffer. 9 ml of flushing medium were added and cells were again spun down by centrifugation at 400×g, 4° C. for 5 minutes. Cells were then resuspended in BMDC medium (RPMI, 10% fetal bovine serum, 1% penicillin-streptomycin100 U/ml, 20 ng/ml recombinant murine GM-CSF), counted and plated at a density of 0.5×10^6 cells ml^−1 in 10 ml medium and incubated at 37° C., 5% CO2 in a humidified incubator. After 2 days, 10 ml of fresh medium were added to the cells and after 4 days, the medium was fully exchanged to 20 ml of fresh medium. The cells were allowed to differentiate for 6 to 8 days before usage.
# (§3) For canonical inflammasome activation BMDCs after 7-9 days of differentiation were harvested and counted with a Neubauer Chamber (Hecht Assistant) and the concentration was set to 1 Mio cells ml^−1. 100 μl cell suspension per well were seeded in 96-well plates. The cells were primed with 50 ng ml^−1 E. coli K12 ultra-pure LPS for 3 hours and subsequently treated with canonical inflammasome activators or experimental compounds for 3 hours if not indicated differently (incubation time FIG. 4D, 5, 7, 8, 11, 13-18: 3 h, FIG. 12: 4 h). Concentrations of the stimuli were as follows if not indicated differently: 5 μM nigericin, 100 μM imiquimod (also known as R837), 100 μM CL097, 100 μM R848, […] poly(dA:dT), 300 μg ml^−1 MSU. If an inhibitor was used before stimuli treatment, the inhibitor was added after 2.5 hours of priming and it was incubated for 30 minutes before inflammasome activation. Inhibitors were used as follows: 3 μM MCC950, 45 mM KCl, 30 μM ebselen (2-Phenyl-1,2-benzoselenazol-3-one), 5 μM cytochalasin D (see FIGS. 8, 11, 12 and 17).
# (§4) All inflammasome stimulations were performed in three technical replicates for each condition. […]
# BMDCs = experiment: LDH release (lytic cell death, pyroptosis) from LPS-primed BMDCs; format: cell-based, mouse; settings: for Average (% positive control): LDH release; for cytotoxicity at 50 µM / cytotoxicity at 25 µM / cytotoxicity at 75 µM: Mus musculus, BMDC
# Experimental: as §1, §2, §3, §4
# [1] = IL-1β release, compound 50 μM, positive control nigericin 5 μM
# [2] = compound 50 μM, LPS-primed BMDCs
# [3] = single replicates, compound 50 μM, LPS-primed BMDCs
# [4] = compound 50 μM, positive control nigericin 5 μM
# [5] = compound 50 μM, LPS-primed BMDCs, read-out: Average LDH release (% of max.)
# [6] = single replicates, compound 50 μM, LPS-primed BMDCs, read-out: LDH release (% of max.)
Structure (SMILES),Average (% positive control) (NLRP3 inflammasome; [1]),Average IL-1β (NLRP3 inflammasome; [2]) [ng/mL],IL-1β (NLRP3 inflammasome; [3]),Average (% positive control) (BMDCs; [4]),cytotoxicity at 50 µM (BMDCs; [5]) [%],cytotoxicity at 50 µM (BMDCs; [6]) [%],also measured
"Cc1ccc(-c2noc(CN3C(=O)CN(c4ccccc4)C3=O)n2)cc1 [L01.127, 3-{[3-(4-methylphenyl)-1,2,4-oxadiazol-5-yl]-methyl}-1-phenylimid-azolidine-2,4-dione]",6.538,0.469,0.490 ng/mL and 0.475 ng/mL and 0.441 ng/mL,14.301,10.5,11,
"COc1ccccc1NC(=O)NCc1nc(-c2cccnc2)no1 [L01.043, 1-(2-methoxyphenyl)-3-{[3-(pyridin-3-yl)-1,2,4-oxadiazol-5-yl]methyl}-urea]",3.697,0.265,0.282 ng/mL and 0.272 ng/mL and 0.242 ng/mL,11.039,8.08,8.07,
"O=C(Nc1ccccc1)Nc1ccc2c(c1)CCC2 [L01.066, 3-(2,3-dihydro-1H-inden-5-yl)-1-phenyl-urea]",3.698,0.265,0.346 ng/mL and 0.256 ng/mL and 0.193 ng/mL,19.592,14.3,15.6,
"CNC(=O)NCc1cccc(NC(=O)Nc2ccccc2)c1 [L01.132, 3-(3-{[(methylcarbamo-yl)amino]methyl}phen-yl)-1-phenylurea]",0.920,0.066,0.062 ng/mL and 0.066 ng/mL and 0.069 ng/mL,8.791,6.43,6.46,
"CC(C)C(NC(=O)Nc1cccc(C(F)(F)F)c1)c1nc(-c2cccnc2)no1 (stereo not drawn) [L01.005, 3-{2-methyl-1-[3-(pyridin-3-yl)-1,2,4-oxadiazol-5-yl]propyl}-1-[3-(trifluoromethyl)-phenyl]urea]",0.980,0.070,0.053 ng/mL and 0.074 ng/mL and 0.084 ng/mL,20.238,14.8,9.31,
"O=C(Nc1ccccc1)Nc1ccc(N2CCCC2)cc1 [L01.004, 3-phenyl-1-[4-(pyrrol-idin-1-yl)phenyl]urea]",19.737,1.415,1.192 ng/mL and 1.485 ng/mL and 1.567 ng/mL,23.074,16.9,15.2,
"CC(=O)Nc1ccc(NC(=O)Nc2ccccc2)cc1 [L01.109, N-{4-[(phenylcarbamo-yl)amino]phenyl}acet-amide]",1.269,0.091,0.120 ng/mL and 0.083 ng/mL and 0.070 ng/mL,10.912,7.98,8.46,
"O=C(Nc1cc(Cl)cc(Cl)c1)Nc1ccc([N+](=O)[O-])cc1Cl [AH1, 1-(2-chloro-4-nitrophenyl)-3-(3,5-dichlorophenyl) urea]",,,,,,,"Average IL-1β (NLRP3 inflammasome; 25 μM, AH series table): 1.177 ng/mL; IL-1β (NLRP3 inflammasome; 25 μM, individual replicate values, AH series table): 1.140 ng/mL and 1.156 ng/mL and 1.234 ng/mL; Average IL-1β (NLRP3 inflammasome; 50 μM, AH series table): 1.578 ng/mL; IL-1β (NLRP3 inflammasome; 50 μM, individual replicate values, AH series table): 1.533 ng/mL and 1.609 ng/mL and 1.592 ng/mL; Average IL-1β (NLRP3 inflammasome; 75 μM, AH series table): 1.533 ng/mL; IL-1β (NLRP3 inflammasome; 75 μM, individual replicate values, AH series table): 1.619 ng/mL and 1.382 ng/mL and 1.598 ng/mL; Average (% positive control) (NLRP3 inflammasome; IL-1β, 25 μM, positive control EN22 10 μM): 11.766 % positive control; Average (% positive control) (NLRP3 inflammasome; IL-1β, 50 μM, positive control EN22 10 μM): 15.776 % positive control; Average (% positive control) (NLRP3 inflammasome; IL-1β, 75 μM, positive control EN22 10 μM): 15.328 % positive control; Average (% positive control) (BMDCs; 25 μM, positive control EN22 10 μM): 53.499 % positive control; Average (% positive control) (BMDCs; 50 μM, positive control EN22 10 μM): 74.390 % positive control; Average (% positive control) (BMDCs; 75 μM, positive control EN22 10 μM): 78.340 % positive control; cytotoxicity at 25 µM (BMDCs; 25 μM, AH series table, read-out: Average LDH release (% of max.)): 41.1%; cytotoxicity at 25 µM (BMDCs; 25 μM, individual replicate values, AH series table, read-out: LDH release (% of max.)): 42.1%; cytotoxicity at 50 µM (BMDCs; 50 μM, AH series table, read-out: Average LDH release (% of max.)): 57.1%; cytotoxicity at 50 µM (BMDCs; 50 μM, individual replicate values, AH series table, read-out: LDH release (% of max.)): 55.7%; cytotoxicity at 75 µM (BMDCs; 75 μM, individual replicate values, read-out: LDH release (% of max.)): 60.7%; cytotoxicity at 75 µM (BMDCs; 75 μM, read-out: Average LDH release (% of max.)): 60.2%"
"COc1cccc(NC(=O)NCc2nc(Cc3ccccc3)no2)c1 [L01.067, 3-[(3-benzyl-1,2,4-oxadiazol-5-yl)methyl]-1-(3-methoxyphenyl)-urea]",0.942,0.068,0.064 ng/mL and 0.069 ng/mL and 0.070 ng/mL,9.336,6.83,6.48,
